Measurements taken from ChEMBL document CHEMBL2380252, “Optimized method of G-protein-coupled receptor homology modeling: its application to the discovery of novel CXCR7 ligands” (J Med Chem, 2013).

molecular target: T1, Atypical chemokine receptor 3 (Homo sapiens, UniProt P25106); experiment: Binding affinity to CXCR7 (unknown origin)
T1 sequence (P25106 whole entry): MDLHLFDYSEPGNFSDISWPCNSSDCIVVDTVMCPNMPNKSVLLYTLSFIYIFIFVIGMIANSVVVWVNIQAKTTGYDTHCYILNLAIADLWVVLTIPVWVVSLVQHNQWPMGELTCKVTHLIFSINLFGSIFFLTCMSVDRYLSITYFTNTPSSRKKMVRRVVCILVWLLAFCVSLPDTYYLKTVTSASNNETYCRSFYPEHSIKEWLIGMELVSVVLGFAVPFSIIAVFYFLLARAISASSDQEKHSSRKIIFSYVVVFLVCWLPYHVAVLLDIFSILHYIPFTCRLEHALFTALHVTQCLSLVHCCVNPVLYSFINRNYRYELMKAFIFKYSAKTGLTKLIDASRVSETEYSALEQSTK

IC50 [µM] | Structure (SMILES)
< 0.1 | COc1c(C)cc2cccnc2c1N1CCCN(C(C(=O)N2CCNCC2)c2csc(C(C)C)n2)CC1 (stereo not given)
4.74 | CCc1ccc(NC(=O)CSc2nc3ccccc3c(=O)n2CCCC(=O)NCN2CCOCC2)cc1
6.33 | O=C(c1cc2c(s1)-c1ccc(Cl)cc1SC2)N1CCC(N2CCCCC2)CC1
< 1 | COc1ccc2c(c1)c1c(cnn1CC(=O)NCCN(C)C1CCCCC1)c(=O)n2C

molecular target: T1, Atypical chemokine receptor 3; experiment: Displacement of [125I]SDF-1alpha from CXCR7 (unknown origin) expressed in CHO cells after 1 hr by TopCount scintillation counting analysis; format: cell-based

Structure (SMILES) | IC50 [µM]
CN(C)c1ccc(/C=C2\SC(N3CCN(CCO)CC3)=NC2=O)cc1 | 5.36
O=C(NCCCN(Cc1ccco1)C1CCCC1)c1cc2c(s1)-c1ccccc1SC2 | 11.4
CCN1CCCC1CNC(=O)c1ccc(-n2ccc3ccccc32)s1 (stereo not given) | 6.75
CCOc1cc(NC(=S)NCCCN(C)C)c(OCC)cc1NC(=O)c1ccc(C)cc1 | 9.79
CCN1CCCC1CNC(=O)CN1C(=O)/C(=C/c2ccccc2F)Sc2ccccc21 (stereo not given) | 6.19
Cc1ccc2[nH]c(=O)c3cc(C(=O)NCCN4CCCCCC4)sc3c2c1 | 7
CCN1CCc2nc3sc(C(=O)N4CCc5ccccc5C4)c(N)c3cc2C1 | 10
CCCCN(CC)CCNC(=O)c1ccc(N2CCc3ccccc32)s1 | 3.89
CC1CCCCN1CCNC(=O)c1cc2c(s1)-c1ccc(Cl)cc1SC2 (stereo not given) | 5.27
Cc1ccc(C(=O)Nc2ncc(CN3CCC(c4ccccc4)C3)s2)cc1 (stereo not given) | 4.35
CN(Cc1ccccc1NC(=O)/C=C/c1cnn(-c2ccccc2)c1)C1CCCCC1 | 5.84
CC1CCCCN1CC(O)COc1ccc2c3c(c(=O)oc2c1)CCC3 (stereo not given) | 8.02

Other lines, results leading:

IC50 [µM] | Structure (SMILES)
1.87 | COc1ccccc1C(CNC(=O)c1cc(-c2ccc(Br)cc2)on1)N1CCC(C)CC1 (stereo not given)
2.92 | Cc1ccc2c(c1)-c1onc(C(=O)NCCCN3CC(C)CC(C)C3)c1CO2 (stereo not given)
2.64 | Cc1ccc2c(c1)-c1onc(C(=O)NCCN3CCCCC3C)c1CO2 (stereo not given)
1.29 | CC1CCCN(CC(O)COc2ccc3c4c(c(=O)oc3c2)CCC4)C1 (stereo not given)
2.78 | CCC(C(=O)NCCCN(CC)Cc1ccccc1)n1nc(C)c2sc3ccccc3c2c1=O (stereo not given)
3.2 | O=C(c1ccc(N2CCc3ccccc32)s1)N1CCC(N2CCCCC2)CC1
1.49 | Cc1cc(OCC(=O)NC2CCN(Cc3ccccc3)CC2)c2c(C)cc(=O)oc2c1
2.21 | CN(CCCNC(=O)c1cc2c(=O)n(C)c3ccccc3c2s1)Cc1ccccc1
2.16 | CCC1CCCCN1CCCNC(=O)CSc1cc(=O)n(C)c2ccc(Cl)cc12 (stereo not given)
